# Test results published in patent publication US8426408B2, “Pyrimidine inhibitors of kinases” (AbbVie Inc., priority 2009, dated 2013).
# How the values were obtained:
# Assay type in all cases: biochemical
# Aurora B = molecular target: T1, Aurora B (Homo sapiens, UniProt Q96GD4); assay: Aurora B enzyme inhibition (time-resolved fluorescence, histone H3 peptide); settings: 1 mM ATP
# T1 construct: Active Aurora B enzyme (recombinant residues 1-344)
# How it was run: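 Recombinant Aurora B (residues 1-344) with GST-INCENP phosphorylated biotinylated histone H3 (1-21) peptide at 1 mM ATP in HEPES pH 7.4 with MgCl2, orthovanadate and Triton X-100 for 1 h. After EDTA stop, the phosphopeptide was detected by TR-FRET (Eu-cryptate anti-phospho-H3 / SA-APC, 665/615 nm ratio). IC50 from an exponential fit.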
# Aurora A = molecular target: T2, Aurora A (Homo sapiens, UniProt O14965); assay: Aurora A enzyme inhibition (time-resolved fluorescence, STK substrate-2); settings: 1 mM ATP
# T2 sequence (O14965 1-403): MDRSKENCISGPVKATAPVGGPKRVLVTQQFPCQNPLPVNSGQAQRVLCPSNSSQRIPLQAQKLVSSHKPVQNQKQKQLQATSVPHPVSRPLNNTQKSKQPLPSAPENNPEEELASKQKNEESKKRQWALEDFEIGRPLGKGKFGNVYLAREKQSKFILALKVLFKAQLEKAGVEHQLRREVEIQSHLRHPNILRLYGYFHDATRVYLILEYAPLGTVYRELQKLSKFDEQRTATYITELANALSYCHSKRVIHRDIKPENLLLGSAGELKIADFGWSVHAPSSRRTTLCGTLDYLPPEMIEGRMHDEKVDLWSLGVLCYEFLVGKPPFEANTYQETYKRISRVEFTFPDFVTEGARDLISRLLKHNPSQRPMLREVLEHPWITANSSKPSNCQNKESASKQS
# How it was run: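 Active enzyme incubated 1 h with biotinylated STK substrate-2, 1 mM ATP and inhibitor in Hepes pH 7.4 with MgCl2, orthovanadate and Triton X-100. EDTA stop; phosphopeptide detected by Eu-cryptate anti-phospho-STK/SA-XL665 TR-FRET (665/615 nm ratio); IC50 by exponential fit.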
# KDR = KDR (Homo sapiens, UniProt P35968); assay: KDR HTRF in vitro kinase assay; parameters: purified enzyme (His6-KDR 789-1354, MW 63 kD); His6 (N); settings: 1 mM ATP; read-out: KDR enzyme inhibition data (Ki)
# How it was run: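 His6-KDR 789-1354 (7 ng/well) with 0.5 μM biotinylated peptide substrate and 1 mM ATP in HEPES pH 7.1, MgCl2/MnCl2, 60 min at room temperature. EDTA-quenched, detected by streptavidin-XL-665 plus Eu-kryptate anti-phosphotyrosine HTRF after 3 h; IC50 from 620/665 nm ratio.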
# T1 sequence (Q96GD4 whole entry, the tested form may be a part): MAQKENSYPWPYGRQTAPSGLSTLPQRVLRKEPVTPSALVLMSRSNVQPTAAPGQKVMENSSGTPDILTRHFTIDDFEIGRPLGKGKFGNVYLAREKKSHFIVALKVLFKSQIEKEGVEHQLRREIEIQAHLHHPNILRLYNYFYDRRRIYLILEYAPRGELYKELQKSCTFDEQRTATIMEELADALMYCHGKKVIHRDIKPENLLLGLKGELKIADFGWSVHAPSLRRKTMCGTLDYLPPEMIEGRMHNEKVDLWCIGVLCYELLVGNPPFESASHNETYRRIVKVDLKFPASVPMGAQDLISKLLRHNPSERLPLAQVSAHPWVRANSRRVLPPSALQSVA
# T1 sequence (Q9NQS7 826-918 partner limits assumed): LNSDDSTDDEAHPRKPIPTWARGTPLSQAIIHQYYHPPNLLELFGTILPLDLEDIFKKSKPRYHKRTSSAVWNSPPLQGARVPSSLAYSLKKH
# KDR, sequence (P35968 789-1354): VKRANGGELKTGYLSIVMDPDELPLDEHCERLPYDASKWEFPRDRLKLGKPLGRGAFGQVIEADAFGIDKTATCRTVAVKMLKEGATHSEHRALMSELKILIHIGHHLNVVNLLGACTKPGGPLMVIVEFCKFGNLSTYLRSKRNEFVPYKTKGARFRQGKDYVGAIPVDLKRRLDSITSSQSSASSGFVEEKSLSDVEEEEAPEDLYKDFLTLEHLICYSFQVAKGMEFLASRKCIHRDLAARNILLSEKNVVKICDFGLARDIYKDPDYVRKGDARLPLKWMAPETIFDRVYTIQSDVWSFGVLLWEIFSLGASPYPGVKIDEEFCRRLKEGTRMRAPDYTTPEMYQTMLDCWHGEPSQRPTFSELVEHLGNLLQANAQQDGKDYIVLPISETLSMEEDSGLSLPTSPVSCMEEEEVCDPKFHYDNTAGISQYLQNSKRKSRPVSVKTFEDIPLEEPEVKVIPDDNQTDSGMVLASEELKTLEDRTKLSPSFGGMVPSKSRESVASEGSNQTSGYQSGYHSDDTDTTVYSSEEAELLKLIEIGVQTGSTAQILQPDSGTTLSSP
SMILES,Ki (Aurora B) [nM],Ki (Aurora A) [nM],Ki (KDR) [nM]
"CNC(=O)[C@@H]1[C@H](Nc2nc(Nc3cnn(C)c3)ncc2Cl)[C@H]2C=C[C@@H]1C2 (racemic) [Example 50, (1S,2S,3R,4R)-3-({5-chloro-2-[(1-methyl-1H-pyrazol-4-yl)amino]pyrimidin-4-yl}amino)-N-methylbicyclo[2.2.1]hept-5-ene-2-carboxamide and (1R,2R,3S,4S)-3-({5-chloro-2-[(1-methyl-1H-pyrazol-4-yl)amino]pyrimidin-4-yl}amino)-N-methylbicyclo[2.2.1]hept-5-ene-2-carboxamide]",< 100,< 100,< 100
"Cn1cc(Nc2ncc(Cl)c(N[C@H]3[C@@H](C(N)=O)[C@@H]4C=C[C@H]3C4)n2)cn1 [Example 41, (1S,2S,3R,4R)-3-({5-chloro-2-[(1-methyl-1H-pyrazol-4-yl)amino]pyrimidin-4-yl}amino)bicyclo[2.2.1]hept-5-ene-2-carboxamide]",< 100,< 100,< 100
"NC(=O)[C@@H]1[C@H](Nc2nc(Nc3cnn(CCO)c3)ncc2C(F)(F)F)[C@H]2C=C[C@@H]1C2 [Example 63, (1S,2S,3R,4R)-3-{[2-{[1-(2-hydroxyethyl)-1H-pyrazol-4-yl]amino}-5-(trifluoromethyl)pyrimidin-4-yl]amino}bicyclo[2.2.1]hept-5-ene-2-carboxamide]",< 100,< 100,< 100
"NC(=O)[C@@H]1[C@H](Nc2nc(Nc3cnn(CC(F)(F)F)c3)ncc2C(F)(F)F)[C@H]2C=C[C@@H]1C2 [Example 64, (1S,2S,3R,4R)-3-{[2-{[1-(2,2,2-trifluoroethyl)-1H-pyrazol-4-yl]amino}-5-(trifluoromethyl)pyrimidin-4-yl]amino}bicyclo[2.2.1]hept-5-ene-2-carboxamide]",< 100,< 100,< 100
"NC(=O)[C@@H]1[C@H](Nc2nc(Nc3cnn([C@H]4CCNC4)c3)ncc2Cl)[C@H]2C=C[C@@H]1C2 [Example 72, (1S,2S,3R,4R)-3-{[5-chloro-2-({1-[(3S)-pyrrolidin-3-yl]-1H-pyrazol-4-yl}amino)pyrimidin-4-yl]amino}bicyclo[2.2.1]hept-5-ene-2-carboxamide]",< 100,< 100,< 100
"NC(=O)[C@@H]1[C@H](Nc2nc(Nc3cnn([C@@H]4CCNC4)c3)ncc2Cl)[C@H]2C=C[C@@H]1C2 [Example 73, (1S,2S,3R,4R)-3-{[5-chloro-2-({1-[(3R)-pyrrolidin-3-yl]-1H-pyrazol-4-yl}amino)pyrimidin-4-yl]amino}bicyclo[2.2.1]hept-5-ene-2-carboxamide]",< 100,< 100,< 100
"CNC(=O)Cn1cc(Nc2ncc(Cl)c(N[C@H]3[C@@H](C(N)=O)[C@@H]4C=C[C@H]3C4)n2)cn1 [Example 75, (1S,2S,3R,4R)-3-{[5-chloro-2-({1-[2-(methylamino)-2-oxoethyl]-1H-pyrazol-4-yl}amino)pyrimidin-4-yl]amino}bicyclo[2.2.1]hept-5-ene-2-carboxamide]",< 100,< 100,< 100
"NC(=O)Cn1cc(Nc2ncc(Br)c(N[C@H]3[C@@H](C(N)=O)[C@@H]4C=C[C@H]3C4)n2)cn1 [Example 76, (1S,2S,3R,4R)-3-[(2-{[1-(2-amino-2-oxoethyl)-1H-pyrazol-4-yl]amino}-5-bromopyrimidin-4-yl)amino]bicyclo[2.2.1]hept-5-ene-2-carboxamide]",< 100,< 100,< 100

# Other lines, results leading:
Ki (Aurora B) [nM],Ki (Aurora A) [nM],Ki (KDR) [nM],SMILES
< 100,< 100,< 100,"NC(=O)[C@@H]1[C@H](Nc2nc(Nc3cnn(CCN4CCCC4)c3)ncc2Br)[C@H]2C=C[C@@H]1C2 (racemic) [Example 44, (1S,2S,3R,4R)-3-[(5-bromo-2-{[1-(2-pyrrolidin-1-ylethyl)-1H-pyrazol-4-yl]amino}pyrimidin-4-yl)amino]bicyclo[2.2.1]hept-5-ene-2-carboxamide and (1R,2R,3S,4S)-3-[(5-bromo-2-{[1-(2-pyrrolidin-1-ylethyl)-1H-pyrazol-4-yl]amino}pyrimidin-4-yl)amino]bicyclo[2.2.1]hept-5-ene-2-carboxamide]"
< 100,< 100,< 100,"CNC(=O)Cn1cc(Nc2ncc(Cl)c(NC3C4CCC(C4)C3C(N)=O)n2)cn1 (racemic) [Example 61, (1R,2S,3R,4S)-3-{[5-chloro-2-({1-[2-(methylamino)-2-oxoethyl]-1H-pyrazol-4-yl}amino)pyrimidin-4-yl]amino}bicyclo[2.2.1]heptane-2-carboxamide and (1S,2R,3S,4R)-3-{[5-chloro-2-({1-[2-(methylamino)-2-oxoethyl]-1H-pyrazol-4-yl}amino)pyrimidin-4-yl]amino}bicyclo[2.2.1]heptane-2-carboxamide]"
< 100,< 100,< 100,"CCn1cc(Nc2ncc(Cl)c(N[C@H]3[C@@H](C(N)=O)[C@@H]4C=C[C@H]3C4)n2)cn1 [Example 42, (1S,2S,3R,4R)-3-({5-chloro-2-[(1-ethyl-1H-pyrazol-4-yl)amino]pyrimidin-4-yl}amino)bicyclo[2.2.1]hept-5-ene-2-carboxamide]"
< 100,< 100,< 100,"CCn1cc(Nc2ncc(C(F)(F)F)c(N[C@H]3[C@@H](C(N)=O)[C@@H]4C=C[C@H]3C4)n2)cn1 [Example 62, (1S,2S,3R,4R)-3-{[2-[(1-ethyl-1H-pyrazol-4-yl)amino]-5-(trifluoromethyl)pyrimidin-4-yl]amino}bicyclo[2.2.1]hept-5-ene-2-carboxamide]"
< 100,< 100,< 100,"NC(=O)[C@@H]1[C@H](Nc2nc(Nc3cnn(CCO)c3)ncc2Cl)[C@H]2C=C[C@@H]1C2 [Example 65, (1S,2S,3R,4R)-3-[(5-chloro-2-{[1-(2-hydroxyethyl)-1H-pyrazol-4-yl]amino}pyrimidin-4-yl)amino]bicyclo[2.2.1]hept-5-ene-2-carboxamide]"
< 100,< 100,< 100,"NC(=O)[C@@H]1[C@H](Nc2nc(Nc3cnn(CC(F)(F)F)c3)ncc2Cl)[C@H]2C=C[C@@H]1C2 [Example 66, (1S,2S,3R,4R)-3-[(5-chloro-2-{[1-(2,2,2-trifluoroethyl)-1H-pyrazol-4-yl]amino}pyrimidin-4-yl)amino]bicyclo[2.2.1]hept-5-ene-2-carboxamide]"
< 100,< 100,< 100,"C[C@@H](O)Cn1cc(Nc2ncc(C(F)(F)F)c(N[C@H]3[C@@H](C(N)=O)[C@@H]4C=C[C@H]3C4)n2)cn1 [Example 69, (1S,2S,3R,4R)-3-{[2-({1-[(2R)-2-hydroxypropyl]-1H-pyrazol-4-yl}amino)-5-(trifluoromethyl)pyrimidin-4-yl]amino}bicyclo[2.2.1]hept-5-ene-2-carboxamide]"
< 100,< 100,< 100,"NC(=O)Cn1cc(Nc2ncc(Cl)c(N[C@H]3[C@@H](C(N)=O)[C@@H]4C=C[C@H]3C4)n2)cn1 [Example 74, (1S,2S,3R,4R)-3-[(2-{[1-(2-amino-2-oxoethyl)-1H-pyrazol-4-yl]amino}-5-chloropyrimidin-4-yl)amino]bicyclo[2.2.1]hept-5-ene-2-carboxamide]"
< 100,< 100,< 100,"CNC(=O)Cn1cc(Nc2ncc(Br)c(N[C@H]3[C@@H](C(N)=O)[C@@H]4C=C[C@H]3C4)n2)cn1 [Example 77, (1S,2S,3R,4R)-3-{[5-bromo-2-({1-[2-(methylamino)-2-oxoethyl]-1H-pyrazol-4-yl}amino)pyrimidin-4-yl]amino}bicyclo[2.2.1]hept-5-ene-2-carboxamide]"
< 100,< 100,< 100,"CC(C)OC(=O)Cn1cc(Nc2ncc(Cl)c(N[C@H]3[C@@H](C(N)=O)[C@@H]4C=C[C@H]3C4)n2)cn1 [Example 78, isopropyl{4-[(4-{[(1R,2R,3S,4S)-3-(aminocarbonyl)bicyclo[2.2.1]hept-5-ene-2-yl]amino}-5-chloropyrimidin-2-yl)amino]-1H-pyrazol-1-yl}acetate]"
< 100,< 100,< 100,"CCn1cc(Nc2ncc(Br)c(N[C@H]3[C@@H](C(N)=O)[C@@H]4C=C[C@H]3C4)n2)cn1 [Example 79, (1S,2S,3R,4R)-3-({5-bromo-2-[(1-ethyl-1H-pyrazol-4-yl)amino]pyrimidin-4-yl}amino)bicyclo[2.2.1]hept-5-ene-2-carboxamide]"
